Experimental data reported in patent publication US7060731B2, “Use of amines” (Amersham Health AS, priority 2000, dated 2006).

Experiments:
Type in all cases: biochemical
[1] = system: coagulation system (intrinsic pathway); assay: Partial activated thromboplastin time test (commercial)
Protocol: (§1) As the body cascade systems are connected, the effects of meglumine on the coagulation system were investigated, by using commercial tests for prothrombin time (extrinsic pathway) and partial activated thromboplastin time (intrinsic pathway). Briefly, meglumine was added to the test systems at final concentrations of 4 mg/mL and 25 mg/mL. In the prothrombin time test meglumine increased the coagulation time by 20.5 and 72.7 seconds respectively. In the partial activated thromboplastin time test the coagulation time was increased by 6.2 and 117.9 seconds respectively. The control plasma heparin, supplied with the kit, increased the coagulation time by 36.4 seconds compared with normal plasma. Meglumine seems to prolong the coagulation time in a concentration dependent way, exceeding the time obtained for heparin plasma at the highest concentration used.

[2] = system: coagulation system (extrinsic pathway); assay: Prothrombin time test (commercial)
Protocol: as §1

[3] = system: classical pathway of complement (heat aggregated IgG activated, SC5b-9); assay: In vitro complement activation by heat aggregated IgG in human serum, SC5b-9 EIA; conditions: heat aggregated IgG 5 mg/mL serum, meglumine 390 mg/mL, FIG. 5
Protocol: (§2) A method for investigation of the ability of different agents to activate the complement system in vitro is described. Briefly, human serum is exposed to the different agents for 30 min at 37Ec. The activation is stopped by placing the samples in an ice-water bath and immediately add cold EDTA-solution at a final concentration of 15 mM. The latter stops further activation by chelating calcium and magnesium ions. The degree of activation is subsequently determined by using commercially available enzyme immunoassays (EIA) for determination of specific complement activation products. In these experiments C3a-desArg or SC5b-9 have been used, representing early pathway activation and terminal pathway activation respectively.
(§3) The alternative and classical pathways represent the main ways of activating the complement system. The ability of meglumine to inhibit these pathways were investigated by using well known activators, Zymosan A (alternative pathway activator) and heat aggregated IgG (classical pathway activator). Zymosan A at 10 mg/mL serum or Zymosan A added meglumine at a final concentration of 39% (w/v) (390 mg/mL) was added to human serum and incubated for 1 hour at 37^EC on a vial roller. To obtain heat aggregated IgG, rabbit IgG at 30 mg/mL was incubated for 30 min at 65EC on a vial roller. […] The samples were analysed for SC5b-9. […]

[4] = system: alternative pathway of complement (Zymosan A activated, SC5b-9); assay: In vitro complement activation by Zymosan A in human serum, SC5b-9 EIA; conditions: Zymosan A 10 mg/mL serum, meglumine 390 mg/mL, 1 hour 37 C, FIG. 4
Protocol: as §2, §3

[5] = system: complement system (early pathway activation, C3a-desArg); assay: In vitro complement activation by X-ray contrast agents in human serum, C3a-desArg EIA; conditions: for inhibition of complement activation induced by Visipaque: substance added to Visipaque, human serum
Protocol: A method for investigation of the ability of different agents to activate the complement system in vitro is described. Briefly, human serum is exposed to the different agents for 30 min at 37Ec. The activation is stopped by placing the samples in an ice-water bath and immediately add cold EDTA-solution at a final concentration of 15 mM. The latter stops further activation by chelating calcium and magnesium ions. The degree of activation is subsequently determined by using commercially available enzyme immunoassays (EIA) for determination of specific complement activation products. In these experiments C3a-desArg or SC5b-9 have been used, representing early pathway activation and terminal pathway activation respectively. The concentrations of contrast agents used in vitro in these experiments is based on the following assumptions: One of the applied clinical doses (ACD) used in vivo is 150 mL Visipaque at a concentration of 320 mg I/mL. For a person of 70 kg with a blood volume of about 5.5 L and a plasma fraction of about 3.5 L, the ACD corresponds to 13.7 mg I/mL serum in the test system. Five times this concentration (68.5 mgI/mL serum) was used for all contrast agents to cover maximum blood concentration immediately after bolus injection of the substances. Hexabrix and Visipaque with concentrations of 320 mg I/mL and phosphate buffered saline (at an equal volume) were added to human serum. Subsequently in vitro complement activation was performed as described previously followed by the determination of C3a-desArg. […] In order to investigate the effect of meglumine on complement activation, meglumine at different concentrations were added to Visipaque and in vitro complement activation was performed followed by determination of C3a-desArg. […] An expanded concentration response experiment (tighter concentration range) was subsequently performed. Ten concentrations of meglumine ranging from 0–18% (w/w) of the iodine content in Visipaque were used. […] The effects of meglumine (39% w/w of mg I/ml) on other non-ionic x-ray contrast agents were investigated. Iopamidol, Omnipaque, Ultravist and Visipaque were added to human serum at a final concentration of 68.5 mg I/mL. Subsequently in vitro complement activation was performed, followed by determination of C3a-desArg as previously described in the section “In vitro complement activation” and in Example 1.

[6] = system: alternative pathway of complement (ZAS activated); assay: In vitro complement activation of human serum by Zymosan A (ZAS), comparison of meglumine analogues; conditions: FIG. 6
Protocol: as §2
In order to investigate and compare the inhibitory effects on in vitro complement activation of other compounds with structural resemblance to meglumine (N-methyl-D-glucamine), a new study was performed. The new test substances chosen were N-methyl-mannosamine, 3-methylamino-1,2-propanediol and 2-(methylamino)ethanol.
Human serum was exposed to Zymosan A (ZAS), a strong activator of the alternative pathway of complement, at three different concentrations (5, 2 and 1 mg/mL serum). The complement activation induced by ZAS alone was compared with that obtained when adding the different test substances at two different concentrations to the ZAS-activated serum. In addition to the three chosen test substances meglumine was included for comparison.
To investigate the inhibitory effects of the test substances at a concentration corresponding to what is given of meglumine when injecting contrast agents such as Hexabrix, a concentration of 5.3 mg/mL serum was used. […] Complement activation induced by ZAS both at 2 and 1 mg/mL, was inhibited by meglumine, 3-methylamino-1,2-propanediol and 2-(methylamino)-ethanol. […] It should be noted that although the concentration of ZAS was reduced, the complement activation obtained was much higher than what would be expected in vivo. Thus meglumine, 3-methylamino-1,2-propanediol and 2-(methylamino)-ethanol seem to be very effective in controlling complement activation.

[7] = ZAS 5 mg/mL serum, test substance 390 mg/mL
[8] = ZAS 2 and 1 mg/mL serum, test substance 5.3 mg/mL serum

| SMILES | inhibition of complement activation induced by Visipaque ([5]; C3a-desArg) | inhibition of in vitro complement activation induced by ZAS [6, 7] | inhibition of in vitro complement activation induced by ZAS [6, 8] | further results |
| --- | --- | --- | --- | --- |
| CNC[C@H](O)[C@@H](O)[C@H](O)[C@H](O)CO [meglumine, N-methyl-D-glucamine] | abolished the complement activation | inhibited | inhibited | increase of coagulation time, partial activated thromboplastin time test ([1]; final concentration 4 mg/mL): 6.2 s; increase of coagulation time, partial activated thromboplastin time test ([1]; final concentration 25 mg/mL): 117.9 s; increase of coagulation time, prothrombin time test ([2]; final concentration 4 mg/mL): 20.5 s; increase of coagulation time, prothrombin time test ([2]; final concentration 25 mg/mL): 72.7 s; inhibition of classical pathway activation of complement (SC5b-9) [3]: inhibited; inhibition of alternative pathway activation of complement (SC5b-9) [4]: inhibited; inhibition of Visipaque-induced complement activation after pH adjustment ([5]; Visipaque with meglumine (pH 11) vs adjusted with HCl to pH 7.4, FIG. 3): not due to the high pH; meglumine concentration at which an inhibitory effect was observed ([5]; meglumine 0–32.5% added to Visipaque, C3a-desArg, FIG. 1): 8–32.5 % (w/w) of the iodine content in Visipaque; inhibition of in vitro complement activation by non-ionic contrast agents (C3a-desArg) ([5]; meglumine 39% w/w of mg I/ml, Iopamidol, Omnipaque, Ultravist and Visipaque at 68.5 mg I/mL serum, FIG. 7): inhibited; lowest concentration of meglumine able to inhibit the complement activation ([5]; ten concentrations 0–18% (w/w) of iodine content in Visipaque, C3a-desArg, FIG. 2): 6 % of the iodine content |
| CNCCO [2-(methylamino)-ethanol] |  | inhibited | inhibited |  |
| CN[C@@H]1C(O)O[C@H](CO)[C@@H](O)[C@@H]1O (some centres unmarked) [N-methyl-mannosamine] |  | inhibited | weaker inhibitory effect |  |
| CNCC(O)CO (centres unmarked) [3-methylamino-1,2-propanediol] |  | inhibited | inhibited |  |
| OC[C@@H](O)[C@@H](O)[C@H](O)[C@H](O)CO [Mannitol, reference compound] | no inhibitory effects |  |  |  |
